Holding throughout (assay type): cell-based
Experiment [1] addresses T1, TAS2R44 (Homo sapiens, UniProt P59538, L162M).
T1 construct: RSS tag (first 45 amino acids of rat somatostatin receptor subtype 3, plus EcoRI site) (N); expressed in transfected cells
T1 sequence (P59538 with tags, fused parts or gaps L162M): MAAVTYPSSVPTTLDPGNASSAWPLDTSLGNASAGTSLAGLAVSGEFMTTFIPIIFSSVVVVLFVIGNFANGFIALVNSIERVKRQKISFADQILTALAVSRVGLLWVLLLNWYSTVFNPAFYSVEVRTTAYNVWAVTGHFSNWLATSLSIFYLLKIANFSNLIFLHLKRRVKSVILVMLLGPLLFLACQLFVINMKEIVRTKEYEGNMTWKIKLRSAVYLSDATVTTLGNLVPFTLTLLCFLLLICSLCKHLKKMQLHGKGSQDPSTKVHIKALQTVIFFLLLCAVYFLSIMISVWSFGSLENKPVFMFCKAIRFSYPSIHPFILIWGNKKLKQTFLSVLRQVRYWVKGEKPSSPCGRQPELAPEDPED
Kind of experiment: Fluo-4 calcium assay, HEK293T cells expressing Gα16-gustducin44 and TAS2R44. The procedure: Cell lines that stably expresses a SABR (TAS2R44, TAS2R1, TAS2R10) was generated by transfecting pcDNA3.1Zeo-SABR into HEK293T/Gα16-gustducin 44 cells (both formed as described in example 1). The host cell line HEK-293T is commercially available from the American Tissue Culture Collection (ATCC), ATCC®# CRL-11268.
The expression of TAS2R44 was evaluated by testing for the presence of a functional response to the known TAS2R44 agonist saccharin (as described in WO 2004/029087) in addition to sucralose, which was determined via automated calcium imaging on the FLIPR-TETRA™ (Molecular Devices, Sunnyvale, Calif., US) as described in example 3. One clone was selected resulting in the HEK293T/Gα16-gustducin 44/TAS2R44 cell line.
Fluo-4AM (Invitrogen, Carlsbad, Calif., US) is a fluorescent indicator of intracellular calcium dynamics (change in concentration) and allows monitoring changes in the calcium concentration, particularly an increase in response to receptor activation occurring after agonist exposure.
(§1) At day 0, the HEK293T cell line expressing Gα16-gustducin44 and a TAS2R bitter taste receptor formed as described in examples 2b or 2c was seeded in antibiotic-free growth medium (standard DMEM with 10% (v/v) heat-inactivated fetal bovine serum, 2 mM L-glutamine[…]) into black wall/clear bottom 96-well plates, coated with poly(ethylenimine) (0.005% v/v) at a concentration of 15,000 cells per well and incubated for 48 hours in humidified atmosphere (37° C., 5% CO2).
(§2) At the time of the assay, the growth medium was discarded and the cells were in humidified atmosphere (37° C., 5% CO2) for 1 hour with 50 μl of loading buffer consisting of 1.5 μM Fluo-4 AM and […] probenicid (Sigma-Aldrich, St. Louis, Mo., US) in DMEM.
(§3) Afterwards, the 96-well plate was washed 5 times with 100 μl of assay buffer (130 mM NaCl, 5 mM KCl, 10 mM HEPES, 2 mM CaCl2, and 5 mM dextrose, pH 7.4) per well, using an automated plate washer (BioTek). The plate was further incubated for 30 minutes at room temperature in the dark to allow for complete de-esterification of the Fluo-4. Afterwards the plate was washed 5 times with 100 μl of assay buffer per well, and reconstituted with 100 μl of assay buffer per well.
(§4) For assay reading, the plate was placed in a Fluorometric Imaging Plate Reader (FLIPR) (FLIPR-TETRA™, Molecular Devices, Sunnyvale, Calif., US), and receptor activation was initiated by addition of 100 μl of a twofold concentrated agonist stock solution (to give the desired agonist end concentration when added to the 100 microliter assay buffer volume), which was prepared in assay buffer.
(§5) Fluorescence was continuously monitored for 20 seconds to give a signal baseline (averaged to give F0) prior to agonist addition and for 120 seconds after agonist addition. The change in signal divided by F0 gives ΔF/F0 indicated in the table, with ΔF being the maximum signal occurring within the 120 seconds minus the minimum signal (occurring within the 120 seconds after agonist addition.
(§6) All data was collected from at least two independent experiments each carried out in triplicate.
(§7) A concentration-response analysis was performed and EC50 values were calculated by nonlinear regression using the function f(x)=(a−d)/(1+(x/C)^nh)+d; with a=minimum signal, d=maximum signal, nh=hill coefficient, C=EC50, and x=agonist concentration. EC50 is the molar concentration of an agonist which produces 50% of the maximum possible effective response for that agonist.
The obtained calcium signals were corrected for the response of cells expressing only the G Protein α subunit (Gα16-gustducin44) and normalized to the fluorescence of cells prior to the stimulus using ΔF/F0 (Fmax−Fmin/F0). […]

The target of experiment [2] is T2, TAS2R16 (Homo sapiens, UniProt Q9NYV7).
T2 construct: The full length gene of human TAS2R44 was amplified by polymerase chain reaction (PCR) using gene-specific primers that span the entire coding region; RSS tag (first 45 amino acids of rat somatostatin receptor subtype 3) (N); expressed in transfected cells; host or cells: HEK293T cells expressing Gα16-gustducin44
T2 sequence (Q9NYV7 1-291): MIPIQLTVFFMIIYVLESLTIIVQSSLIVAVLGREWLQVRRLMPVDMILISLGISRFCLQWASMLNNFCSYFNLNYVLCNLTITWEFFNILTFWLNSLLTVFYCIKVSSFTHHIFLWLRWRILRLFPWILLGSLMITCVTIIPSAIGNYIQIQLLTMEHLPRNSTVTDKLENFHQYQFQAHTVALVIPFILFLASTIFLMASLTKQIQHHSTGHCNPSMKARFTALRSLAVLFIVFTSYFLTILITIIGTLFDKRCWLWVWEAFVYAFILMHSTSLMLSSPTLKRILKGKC
Kind of experiment: Fluo-4 calcium assay, cells expressing TAS2R16 (control of antagonist specificity). The protocol: as §1, §2, §3, §4, §5, §6, §7
(§8) The obtained calcium signals were corrected for the response of cells expressing only the G Protein α subunit (Gα16-gustducin44) and normalized to the fluorescence of cells prior to the stimulus using ΔF/F0 (Fmax−Fmin/F0).
All cells were HEK293T cells stably expressing Gα16-gustducin44, or expressing Gα16-gustducin44 and a TAS2R receptor (TAS2R44, TAS2R16).
The method was carried out as described in example 3 subject to the following modifications: The samples were tested with and without test compound A (test cpd A) and the signals were compared. The test compound was dissolved in dimethylsulfoxide (DMSO), and a negative control with equivalent DMSO concentration (0.02%) was performed accordingly to exclude a potential inhibitory effect of the solvent.
As a control of antagonist specificity, the response of an unrelated bitter taste receptor (TAS2R16) to its agonist phenyl-β-glucopyranosides is also detected (see results in table 8 herein below).

Experiment [3] relates to cells expressing only Gα16gustducin44 but no TAS2 receptor. Kind of experiment: Fluo-4 calcium assay, negative control cells without bitter receptor. The procedure:
HEK293T/Gα16-gustducin 44 cells were used; they are formed as described in WO 2004/055048. The host cell line HEK-293T is commercially available from the American Tissue Culture Collection (ATCC), ATCC®# CRL-11268
as §1, §2, §3, §4, §5, §8
To confirm that the cell line formed in example 2c stably expresses the bitter taste receptor TAS2R44, a concentration-response curve for saccharin, a known agonist of TAS2R44, was generated. […] The standard deviation (+/−STD) is also indicated.
As a negative control to determine unspecific signals, each of the applied concentrations of sucralose was applied to cells expressing only Gα16gustducin44.
As a negative control, each agonist and each agonist with the antagonist/test compound (test cpd A) is applied to cells expressing only Gal 6gustducin44 but no TAS2 receptor (see results in table 7 herein below).

The record followed here is US8187822B2, “Methods to identify modulators” (Givaudan S.A., priority 2007, dated 2012).

As usually defined, the EC50 is the concentration needed to bring the measured effect to its halfway point.

As for `COC(=O)[C@H](Cc1ccccc1)NC(=O)[C@@H](N)CC(=O)O` [aspartame], the “agonist activity at TAS2R44 (calcium signaling), in words” value in experiment [1] (cells stably expressing human TAS2R44) is “not to be agonists for TAS2R44”.

Turning to `OC[C@H]1O[C@@H](Oc2ccccc2)[C@H](O)[C@@H](O)[C@@H]1O` [P-β-G, phenyl-β-glucopyranoside], the “P-β-G ΔF/F0” value in experiment [2] (P-β-G alone 0.0391 mM) stood at 0.012; in experiment [2] (P-β-G alone 0.0781 mM) it was 0.213; in experiment [2] (P-β-G alone 0.1563 mM), 0.926; in experiment [2] (P-β-G alone 0.3125 mM) it was 1.810; in experiment [2] (P-β-G alone 0.6250 mM) it was 2.284; in experiment [2] (P-β-G alone 1.2500 mM), 2.361. Also, the results for the “P-β-G ΔF/F0” value in experiment [2] (P-β-G alone 2.5000 mM), in experiment [2] (P-β-G alone 5.0000 mM) and in experiment [2] (P-β-G alone 10.0000 mM) were 2.578, 2.693 and 2.876, respectively. The concentration for a half-maximal effect (EC50) in experiment [2] (agonist P-β-G alone, TAS2R16) was determined as 210 ± 20 µM.

On to `CC1CCC(CCCC(N)=O)C1(C)C` (stereo not drawn) [test cpd B, 4-(2,2,3-trimethylcyclopentyl)butanamide], for which the “effect on the response of TAS2R44 to sucralose, in words” value in experiment [1] (test compound at 25 μM) is recorded as “had no effect”. Also, the “response in cells not expressing TAS2R44 (negative control), in words” value in experiment [3] (test compound at 25 μM) is reported as “did not elicit a response”. Besides, the “effect on the response of TAS2R16 to phenyl-β-glucopyranoside, in words” value in experiment [2] (test compound at 25 μM) is given as “did not effect the response”.

In the case of `O=C1NS(=O)(=O)c2ccccc21` [Saccharin, saccharin], the “signal in negative control, in words” value in experiment [3] (host cells expressing only Gα16-gustducin44) is “did not show any significant change in signal”. Besides, the “Neg. Control ΔF/F0” value is 0.016 in experiment [3] (saccharin 0.0391 mM); 0.014 in experiment [3] (saccharin 0.0781 mM); 0.014 in experiment [3] (saccharin 0.1563 mM); 0.012 in experiment [3] (saccharin 0.3125 mM); 0.014 in experiment [3] (saccharin 0.6250 mM); 0.014 in experiment [3] (saccharin 1.2500 mM). The “Neg. Control ΔF/F0” value was 0.013 in experiment [3] (saccharin 2.5000 mM), 0.018 in experiment [3] (saccharin 5.0000 mM) and 0.020 in experiment [3] (saccharin 10.0000 mM).
